Values quoted from earlier work in patent publication US20050182128A1, “Use of anethole dithiolethione in lung cancer chemoprevention” (priority 2002, published 2005).

How the values were obtained:
metaplasia = metaplasia as intermediate endpoint biomarker; cited from earlier work
[1] = system: glutathione-S-transferase (GST); details: rat model of hepatoma; p<0.01; cited from earlier work
[2] = in vivo; cited from earlier work
aflatoxins = details: in vivo; cited from earlier work

| Compound | Chemopreventive efficacy (metaplasia) | Mean GST levels in the liver [1] | Toxicity in chemoprevention [2] | Phase I activation of aflatoxins (aflatoxins) | Phase II conjugation of aflatoxin (aflatoxins) |
| --- | --- | --- | --- | --- | --- |
| CC1=C(/C=C/C(C)=C/C=C/C(C)=C/C(=O)Nc2ccc(O)cc2)C(C)(C)CCC1 [N-(4-Hydroxyphenyl)retinamide] | not found to be effective | – | – | – | – |
| Cc1c(-c2cnccn2)ssc1=S [Oltipraz, 5-(2-pyrazinyl)-4-methyl-1,2-dithiol-3-thione] | – | statistically increased | too toxic for chemoprevention | inhibited phase I activation of aflatoxins | increased phase II conjugation of aflatoxin |
| CC1=C(/C=C/C(C)=C/C=C/C(C)=C\C(=O)O)C(C)(C)CCC1 [isotretinoin] | not found to be effective | – | – | – | – |
